# Assay: Solubility of lab-made phthalocyanines in organic solvents
# Format: physicochemical
solubility (THF),solubility (acetone),solubility (methanol),solubility (n-hexane),solubility (toluene),Compound
◯ (slightly soluble (1 wt. % ˜ 3 wt. %)),◯ (slightly soluble (1 wt. % ˜ 3 wt. %)),Δ (hardly soluble (<1 wt. %)),Δ (hardly soluble (<1 wt. %)),◯ (slightly soluble (1 wt. % ˜ 3 wt. %)),[Co+2].c1ccc2c(c1)-c1nc-2nc2[n-]c(nc3nc(nc4[n-]c(n1)c1ccccc41)-c1ccccc1-3)c1ccccc21 [CoPc]
◯ (slightly soluble (1 wt. % ˜ 3 wt. %)),◯ (slightly soluble (1 wt. % ˜ 3 wt. %)),Δ (hardly soluble (<1 wt. %)),Δ (hardly soluble (<1 wt. %)),◯ (slightly soluble (1 wt. % ˜ 3 wt. %)),[Ni+2].c1ccc2c(c1)-c1nc-2nc2[n-]c(nc3nc(nc4[n-]c(n1)c1ccccc41)-c1ccccc1-3)c1ccccc21 [NiPc]

# Reference: US20030010621A1, “NOVEL SYNTHESIS OF PHTHALOCYANINES BY MICROWAVE IRRADIATION” (priority 2001, published 2003)
